According to article PMC4336141, “Repurposing Auranofin as a Lead Candidate for Treatment of Lymphatic Filariasis and Onchocerciasis” (PLoS Neglected Tropical Diseases, 2015):
pIC50: −log10 of the molar value. “Also recorded” adds a separate entry of the source.

Assays:
[1] = test system: adult female B. pahangi; experiment: Transmission electron microscopy of treated adult female B. pahangi; assay type: cell-based, Brugia pahangi; conditions: flubendazole 10 μM overnight, positive control
Procedure: Adult female B. pahangi worms were incubated with either 1 μM, 0.3 μM, or 0.1 μM auranofin, 10 μM flubendazole (as a positive control), or 1% DMSO overnight, then cut into 3 segments separating the anterior, middle and posterior sections. The middle sections were further cut into 1 mm sized pieces in fixative (2.5% glutaraldehyde and 2% paraformaldehyde in 0.1 M sodium cacodylate buffer, pH 7.3–7.4) and stored at 4°C. Middle sections were subsequently treated with 1% tannic acid for 1 hour, followed by three buffer washes before post fixation staining with 2% osmium tetroxide for 1 hour. The samples were washed three times in buffer before dehydration in an ethanol series. Worm sections were then infiltrated with propylene oxide, embedded in epon 812 resin and polymerized in a vacuum oven at 60°C overnight. Ultrathin sections were cut using an RMC MTX ultramicrotome with a Diatome diamond knife followed by post staining of the grids with saturated ethanolic uranyl acetate and Reynolds lead citrate. Samples were imaged on a FEI Tecnai 12 spirit TEM operated at 80 kV. A similar procedure was performed on adult female O. ochengi worm masses that were cultured for 7 days with 10 μM auranofin before fixation of cut pieces of the adult female mass. Untreated adult female masses cultured for 7 days and fixed by the same procedure served as the control.

[2] = test system: Recombinant B. malayi TrxR (rBmTrxR); experiment: Recombinant B. malayi TrxR (rBmTrxR) DTNB inhibition assay; assay type: biochemical, Brugia malayi
Procedure: Recombinant 6-His-tagged B. malayi TrxR (rBmTrxR) was produced in E. coli BL21(DE3) in the presence of pSUABC [29] in LB medium supplemented with 20 μg/mL riboflavin under conditions for optimal selenoprotein expression. An overnight starter culture in LB with 50 μg/mL ampicillin and 34 μg/mL chloramphenicol was diluted (1:100) into in LB medium with the same antibiotics. When the culture reached an OD600 = 0.8, the medium was supplemented with 5 μM sodium selenite and 100 μg/mL L-cysteine. When the culture OD600 = 2, riboflavin (20 μg/mL) was added and protein expression was induced by the addition of isopropyl β-D-1-thiogalactopyranoside (50 μM). At this point the cultures were shifted to 24°C and incubated for 24 hr. Cells were collected by centrifugation, lysed by alternative freeze-thaw cycles, and resuspended in lysis buffer (50 mM potassium phosphate, pH 7.8, 500 mM NaCl, 30 mM imidazole, 1 mg/mL lysozyme, 1 mM phenylmethanesulfonylfluoride) supplemented with 100 μM flavin adenine dinucleotide. The sample was sonicated and cellular debris pelleted at 25,000 x g at 4°C for 25 min. The supernatant was collected and filtered through a 0.45 μm filter before purification by immobilized metal ion affinity chromatography using a His-Trap FF column (GE Healthcare). The column was washed with 10 column volumes binding buffer (50 mM potassium phosphate, pH 7.8, 500 mM NaCl, 30 mM imidazole) and then with 5 column volumes of buffer A (binding buffer with 100 mM imidazole). TrxR protein was eluted in 3 × 1 mL buffer B (binding buffer with 500 mM imidazole).Protein was concentrated (Amicon Ultra-4 10K) and purity was verified by SDS-PAGE and quantified by absorbance at 280 nm (ε = 69.76 mM^-1 cm^-1).
rBmTrxR activity was assayed in 0.1 M potassium phosphate (pH 7.2) with 10 mM EDTA and 25 nM rBmTrxR. rBmTxrR was pre-incubated for 20 min with NADPH (100 μM) and auranofin (ICN Pharmaceuticals, now Valeant Pharmaceuticals, Bridgewater, NJ) or aurothioglucose (USP Reference Standards, Rockville, MD) in DMSO in 100 μL, followed by addition of an equal volume of buffer with NADPH (200 μM) and DTNB (6 mM) with reaction progress monitored at λ = 412 nm for TNB production. The concentration of DMSO in all reactions was 3.5%.

Compound | ultrastructure (TEM) of adult female B. pahangi [1] | mode of inhibition of rBmTrxR [2] | pIC50 ([2]; 25 nM rBmTrxR, 20 min pre-incubation with NADPH, DTNB substrate)
COC(=O)Nc1nc2cc(C(=O)c3ccc(F)cc3)ccc2[nH]1 [flubendazole] | normal Wolbachia with very few mitochondria containing dark bodies; also recorded: did not cause vacuolization but only minor changes to the mitochondria | – | –
aurothioglucose | – | irreversibly inhibit rBmTrxR at a one-to-one molar ratio | 8.05
